Data from US9944654B2, “Nargenicin compounds and uses thereof as antibacterial agents” (priority 2014, dated 2018).
In brackets after ≈: the same amount, converted by molar mass. Several values for one entry are separate records, joined by “and”; a condition that tells them apart may be missing. Equal entries are not always repeated. Where two headings read alike, the source gives them in different places.

Experiments:
[1] = test system: Pseudomonas aeruginosa MB5890 (CB1101, efflux-deleted); assay: microbe, parasite or virus in culture; format: cell-based; conditions: * = some reduction of growth versus control at […]; for MIC: Pseudomonas aeruginosa, read-out: P. aeruginosa MB5890 efflux-del (MIC), MHII broth
[2] = biological target: T1, E. coli DnaE (DNA polymerase III α-subunit from Escherichia coli) (Escherichia coli, UniProt P10443); assay: In vitro DnaE single enzyme assay (E. coli); format: biochemical; conditions: E. coli DnaE IC50
T1 construct: EcDnaE (E. coli DnaE residues 1-1160); 6xHis (N); made in house; host or cells: E. coli BL21(DE3)
Procedure: (§1) Plasmids encoding EcDnaE (E. coli DnaE residues 1-1160) and SaDnaE (S. aureus DnaE residues 1-1065) with 6×His N-terminal tags, were overexpressed in BL21(DE3) and BL21-AI cells (Invitrogen), respectively. Cells were grown in LB media to an OD ˜0.45 pelleted and then resuspended in Minimal Media, as described in Pryor et al. (1997, Protein Expr Purif. 10:309-19), and inducer (0.4 mM IPTG or 0.2% arabinose) for 21 hours at 18° C. at 220 rpm. Cells were then harvested, frozen for 20 minutes at −80° C. and thawed. Pellets were resuspended in 1× Talon buffer (50 mM Sodium Phosphate, 300 mM Sodium Chloride, pH 7.4) +10% glycerol +Roche PI's (-EDTA). Cells were lysed with two passes through a French press, then centrifuged for 45 minutes at 40,000 rpm (70Ti, Beckman). Supernatant was bound to 5 mL TALON resin (CLONTECH) for 1 hour at room temperature on Nutator. TALON resin was washed with 10 mM imidizole, and DnaE was eluted with 250 mM imidizole. Eluate was concentrated and run on a size exclusion column (SEC200, GE Healthcare) in the following buffer; 25 mM HEPES, 30 mM NaCl,1 mM CaCl2, 5% glycerol, pH 7.9. Pool SEC fractions based on SDS-PAGE run, aliquot, freeze, and store at -80° C.
(§2) DnaE was diluted in 50 mM potassium phosphate pH 7.5, 5 mM BME, 10% glycerol and 200 mM NaCl prior to use.
(§3) The purpose of the DnaE single enzyme assay is to determine the ability of compounds to inhibit the DNA polymerase III α-subunit homolog from Staphylococcus aureus or the α-subunit from Escherichia coli without the other components of the replication machinery. The DnaE single enzyme assay was a modified version of the method, Standard Pol III Assay Using Activated DNA and Four dNTPs, described by Butler et al., 2008, Methods in Molecular Medicine: New Antibiotic Targets 142:25-36. Briefly, in 96-well plates, enzyme was added to a mixture containing 30 mM Tris-HCl pH 7.5, 20% glycerol, 4 mM DTT, 10 mM Mg acetate, 0.025 mM dATP, 0.025 mM dGTP, 0.025 mM dc:TP, 0.011 mM ^3H-dTTP 1 mCi/ml (Perkin-Elmer), and 0.298 mg/mL Dnase I (Sigma) treated “activated” Calf Thymus DNA (Worthington Biochemical). The assay was set up so that 5 μl of compound was distributed to the plates, 90 μl of reaction mix was added to the compound, and 5 μl of enzyme was added to start the reaction. Assays were initiated by the addition of 0.8 μg/ml E. coli or 0.05 μg/ml S. aureus DnaE, incubated for 30 min at 30° C., and terminated by the addition of a 20% trichloroacetic acid and 0.2% sodium pyrophosphate solution. Precipitated labeled DNA was collected on Glass-fiber Filtermat A using Micro96 Harvester, and the filters were washed, dried, and counted in a Microbeta Trilux (Perkin Elmer). Serial dilutions of compounds (in DMSO) were added to the plates before enzyme addition.

[3] = test system: Streptococcus pneumoniae MB6357 (CL 2883); assay: Nargenicin antibacterial assay (MIC), S. pneumoniae; format: cell-based; conditions: Streptococcus pneumoniae
[4] = test system: Escherichia coli MB5747 (LS 883, tolC); assay: microbe, parasite or virus in culture; format: cell-based; conditions: * = some reduction of growth versus control at […]; for MIC: Escherichia coli, read-out: E. coli LS883 tolC (MIC), MHII broth
[5] = biological target: T2, S. aureus DnaE (DNA polymerase III α-subunit homolog from Staphylococcus aureus) (Staphylococcus aureus, UniProt Q5HF71); assay: biochemical; format: biochemical
T2 construct: SaDnaE (S. aureus DnaE residues 1-1065); 6xHis (N); made in house; host or cells: E. coli BL21-AI
T2 sequence (Q5HF71 1-1065): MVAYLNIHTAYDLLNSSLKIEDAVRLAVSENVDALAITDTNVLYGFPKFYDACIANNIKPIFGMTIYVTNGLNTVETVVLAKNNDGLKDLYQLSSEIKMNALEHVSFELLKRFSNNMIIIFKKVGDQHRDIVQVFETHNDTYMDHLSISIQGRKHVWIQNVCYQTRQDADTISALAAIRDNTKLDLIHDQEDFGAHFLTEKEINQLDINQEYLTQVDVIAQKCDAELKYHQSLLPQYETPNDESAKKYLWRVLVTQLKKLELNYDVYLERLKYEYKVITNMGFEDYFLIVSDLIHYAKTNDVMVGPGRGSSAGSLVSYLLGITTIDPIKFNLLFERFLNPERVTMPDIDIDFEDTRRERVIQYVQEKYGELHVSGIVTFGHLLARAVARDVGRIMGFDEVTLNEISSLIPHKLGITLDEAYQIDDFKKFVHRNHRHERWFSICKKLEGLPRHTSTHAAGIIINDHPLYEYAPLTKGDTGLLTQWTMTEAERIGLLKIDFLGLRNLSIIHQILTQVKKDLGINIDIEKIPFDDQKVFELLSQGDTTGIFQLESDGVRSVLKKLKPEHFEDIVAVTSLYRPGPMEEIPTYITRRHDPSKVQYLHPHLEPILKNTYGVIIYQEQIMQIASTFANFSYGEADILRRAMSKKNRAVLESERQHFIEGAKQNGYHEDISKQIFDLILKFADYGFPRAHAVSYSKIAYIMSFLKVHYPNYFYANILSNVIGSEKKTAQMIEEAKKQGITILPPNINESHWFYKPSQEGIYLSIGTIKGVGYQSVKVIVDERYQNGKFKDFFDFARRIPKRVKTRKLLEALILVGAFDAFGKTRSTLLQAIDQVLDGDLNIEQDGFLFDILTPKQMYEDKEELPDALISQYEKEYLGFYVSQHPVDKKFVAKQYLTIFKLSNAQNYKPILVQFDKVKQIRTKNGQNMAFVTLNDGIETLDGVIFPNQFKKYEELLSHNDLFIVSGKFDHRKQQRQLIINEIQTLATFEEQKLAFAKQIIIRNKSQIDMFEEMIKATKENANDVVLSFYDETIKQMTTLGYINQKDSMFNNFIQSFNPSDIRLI
Procedure: as §1, §2, §3

[6] = test system: Staphylococcus aureus MB6266 (MRSA COL); assay: Nargenicin antibacterial assay (MIC), S. aureus; format: cell-based; conditions: Staphylococcus aureus, MRSA, read-out: S. aureus COL (MIC), MHII broth + 50% human serum; * = some reduction of growth versus control at […]
[7] = read-out: S. pneumoniae MB2883 (MIC)
[8] = read-out: S. aureus DnaE IC50 (converted)
[9] = read-out: S. pneumoniae MB2883 (MIC), Isosensitest broth, * = some reduction of growth versus control at […]

T1 sequence (P10443 whole entry, the tested form may be a part): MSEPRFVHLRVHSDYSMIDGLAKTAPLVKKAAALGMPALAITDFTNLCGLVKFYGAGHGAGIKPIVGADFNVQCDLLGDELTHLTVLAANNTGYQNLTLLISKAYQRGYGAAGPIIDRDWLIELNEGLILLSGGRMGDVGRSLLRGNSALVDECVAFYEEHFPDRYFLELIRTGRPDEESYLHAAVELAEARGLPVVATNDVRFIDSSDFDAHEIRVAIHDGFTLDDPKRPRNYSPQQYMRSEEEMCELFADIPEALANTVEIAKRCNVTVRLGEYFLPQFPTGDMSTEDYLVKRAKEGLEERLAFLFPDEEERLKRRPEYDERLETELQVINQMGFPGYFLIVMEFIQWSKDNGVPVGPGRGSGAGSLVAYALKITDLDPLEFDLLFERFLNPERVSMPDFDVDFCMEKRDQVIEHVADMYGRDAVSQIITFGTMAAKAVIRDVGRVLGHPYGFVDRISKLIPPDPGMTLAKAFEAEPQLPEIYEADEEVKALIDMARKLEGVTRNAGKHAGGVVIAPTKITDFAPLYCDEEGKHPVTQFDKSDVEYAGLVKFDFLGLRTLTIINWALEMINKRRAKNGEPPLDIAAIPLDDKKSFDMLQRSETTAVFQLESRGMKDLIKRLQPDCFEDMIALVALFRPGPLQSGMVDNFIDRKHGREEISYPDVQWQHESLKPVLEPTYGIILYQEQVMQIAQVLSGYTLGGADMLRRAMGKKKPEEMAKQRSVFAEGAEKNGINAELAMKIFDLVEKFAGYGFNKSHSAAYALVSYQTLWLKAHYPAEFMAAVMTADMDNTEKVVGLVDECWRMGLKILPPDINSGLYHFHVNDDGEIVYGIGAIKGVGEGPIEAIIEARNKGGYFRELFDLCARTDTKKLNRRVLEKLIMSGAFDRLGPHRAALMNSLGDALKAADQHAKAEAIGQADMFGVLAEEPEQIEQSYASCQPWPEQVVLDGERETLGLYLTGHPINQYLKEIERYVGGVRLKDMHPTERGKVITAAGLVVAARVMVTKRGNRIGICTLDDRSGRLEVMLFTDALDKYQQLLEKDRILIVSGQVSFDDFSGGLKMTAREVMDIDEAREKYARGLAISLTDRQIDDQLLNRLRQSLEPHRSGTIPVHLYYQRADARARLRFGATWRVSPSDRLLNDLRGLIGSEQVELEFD

Structure (SMILES) | MIC [1] [µg/mL] | IC50 [2] | MIC [3, 7] [µg/mL] | MIC [4] [µg/mL] | IC50 [5, 8] [µM] | MIC [3, 9] [µg/mL] | MIC [6] [µg/mL] | IC50 ([5]; S. aureus DnaE IC50) [µM] | P. aeruginosa MB5890 efflux-del (MIC) ([1]; MHII broth) [µg/mL] | E. coli LS883 tolC (MIC) ([4]; MHII broth) [µg/mL]
CO[C@H]1C[C@H]2C=C[C@H]3[C@H]4O[C@]2(/C(C)=C/[C@@H](C)[C@@H]([C@@H](C)O)OC1=O)[C@@H]3[C@H](O)[C@@H](C)[C@@H]4N1CCCC1 [Example 161, (3R,4S,7S,8aS,10aR,11R,12S,13S,14R,14aS,14bS,E)-14-hydroxy-4-((R)-1-hydroxyethyl)-7-methoxy-1,3,13-trimethyl-12-(pyrrolidin-1-yl)-3,4,8,8a,10a,11,12,13,14,14a-decahydro-11,14b-epoxynaphtho[2,1-e]oxecin-6(7H)-one] | > 64 | > 105 µM | > 64 | > 64 | 46.3 |  |  |  |  | 
CO[C@H]1CC2C=C[C@H]3[C@H]4O[C@]2(/C(C)=C/[C@@H](C)[C@@H]([C@@H](C)OC(=O)NC(CO)(CO)CO)OC1=O)[C@@H]3[C@H](O)[C@@H](C)[C@H]4OC(=O)c1ccc[nH]1 (stereo partly drawn) [Example 22] | 64 (≈ 96.6 µM) | > 151 µM | 64 (≈ 96.6 µM) | 4 (≈ 6.04 µM) | < 0.00905 |  |  |  |  | 
COC1CC2C=CC3C4OC2(C(C)=CC(C)C(C(C)OC(=O)OCCN(CCO)C(CO)(CO)CO)OC1=O)C3C(O)C(C)C4OC(=O)c1ccc[nH]1 (stereo not drawn) [Example 31] | 32 (≈ 42.6 µM) |  |  | 2 (≈ 2.66 µM) |  | > 128 | 2 | < 0.00799 |  | 
CCOC(=O)O[C@H](C)[C@H]1OC(=O)[C@@H](OC)CC2C=C[C@H]3[C@H]4O[C@]2(/C(C)=C/[C@H]1C)[C@@H]3[C@H](O)[C@@H](C)[C@H]4OC(=O)c1ccc[nH]1 (stereo partly drawn) [Example 29] | > 128 | 76.6 µM | 16 (≈ 27.2 µM) | 8 (≈ 13.6 µM) | < 0.0102 |  |  |  |  | 
CC[C@H]1OC(=O)[C@@H](OC)C[C@H]2C=C[C@H]3[C@H]4O[C@]2(/C(C)=C/[C@H]1C)[C@@H]3[C@H](O)[C@@H](C)[C@H]4OC(=O)c1ccc[nH]1 [Example 159] | 32 (≈ 64.1 µM) | 36 µM and 22 µM and 30 µM and 20 µM |  | 4 (≈ 8.01 µM) |  |  | 2 | < 0.006 | 16 | 2
CO[C@H]1C[C@H]2C=C[C@@H]3[C@H]4C(=O)C(C)C(C[N+](=O)[O-])[C@@H]3O[C@@]24/C(C)=C/[C@@H](C)[C@@H]([C@@H](C)OCSC)OC1=O (stereo partly drawn) [Example 175] | > 128 |  |  | > 128 |  | > 128 | > 128 | > 191 |  | 
CO[C@H]1C[C@H]2C=C[C@H]3[C@H]4O[C@]2(/C(C)=C/[C@@H](C)[C@@H]([C@@H](C)O)OC1=O)[C@@H]3[C@H](O)[C@@H](C)[C@H]4O [Example 152] | 16 (≈ 37.9 µM) |  |  | 16 (≈ 37.9 µM) |  | > 128 | > 128 |  |  | 
CO[C@H]1C[C@H]2C=C[C@H]3[C@H]4O[C@]2(/C(C)=C/[C@@H](C)[C@@H]([C@@H](C)O)OC1=O)[C@@H]3[C@H](O)[C@@H](C)[C@H]4OCc1ccsc1 [Example 184] | 64 (≈ 123 µM) | 75.2 µM | 64 (≈ 123 µM) | 8 (≈ 15.4 µM) | 0.0771 |  |  |  |  | 
CO[C@H]1C[C@H]2C=C[C@H]3[C@H]4O[C@]2(/C(C)=C/[C@@H](C)[C@@H]([C@@H](C)OCSC)OC1=O)[C@@H]3C(=O)[C@@H](C)[C@H]4OC(=O)c1ccc[nH]1 [Example 58] | > 128 | 36.6 µM |  | > 8 | > 174 | > 128 |  |  |  | 
CO[C@H]1CC2C=C[C@H]3[C@H]4O[C@]2(/C(C)=C/[C@@H](C)[C@@H](C(C)O)OC1=O)[C@@H]3[C@H](O)[C@@H](C)[C@H]4OC(=O)c1cc(-c2cccn2C(=O)OC(C)(C)C)c[nH]1 (stereo partly drawn) [Example 45] | > 128 |  |  | > 128 |  | 4 (≈ 5.88 µM) | > 128 | 2.2 |  | 
CCN[C@H]1[C@H](C)[C@@H](O)[C@@H]2[C@H]3C=C[C@@H]4C[C@H](OC)C(=O)O[C@H]([C@@H](C)O)[C@H](C)/C=C(\C)[C@@]24O[C@H]31 [Example 147, (3R,4S,7S,8aS,10aR,11R,12S,13S,14R,14aS,14bS,E)-12-(ethylamino)-14-hydroxy-4-((R)-1-hydroxyethyl)-7-methoxy-1,3,13-trimethyl-3,4,8,8a,10a,11,12,13,14,14a-decahydro-11,14b-epoxynaphtho[2,1-e]oxecin-6(7H)-one] | > 128 | > 222 µM |  | > 128 | 0.667 | > 128 |  |  |  | 
CO[C@H]1CC2C=C[C@H]3[C@H]4O[C@]2(/C(C)=C/[C@@H](C)[C@@H](C(C)O)OC1=O)[C@@H]3[C@H](O)[C@@H](C)[C@H]4OC(=O)c1cc(-c2ccsc2)c[nH]1 (stereo partly drawn) [Example 165] | > 128 |  |  | 16 (≈ 26.8 µM) |  | 8 (≈ 13.4 µM) | > 128 | 4.85 |  | 
CO[C@H]1C[C@H]2C=CC3C4[C@H](O)[C@@H](C)[C@@H](OC(=O)c5ccc[nH]5)[C@@H]3O[C@]42/C(C)=C/[C@@H](C)[C@@H]([C@@H](C)OC(=O)C(=O)OCc2cccnc2)OC1=O.O=C(O)C(F)(F)F [Example 208] | 32 | 3.41 µM | > 128 | 1 | < 0.00757 |  |  |  |  | 
